IC50 data for two compounds are collected here from patent US20030096958A1, “Human NHE2” (Pfizer Inc., priority 2001, published 2003).

Where two headings read alike, the source gives them in different places.

The target of one assay is T1, human NHE2-LF (Homo sapiens, UniProt Q9UBY0).
T1 construct: expressed in transfected cells
T1 sequence (Q9UBY0 1-812): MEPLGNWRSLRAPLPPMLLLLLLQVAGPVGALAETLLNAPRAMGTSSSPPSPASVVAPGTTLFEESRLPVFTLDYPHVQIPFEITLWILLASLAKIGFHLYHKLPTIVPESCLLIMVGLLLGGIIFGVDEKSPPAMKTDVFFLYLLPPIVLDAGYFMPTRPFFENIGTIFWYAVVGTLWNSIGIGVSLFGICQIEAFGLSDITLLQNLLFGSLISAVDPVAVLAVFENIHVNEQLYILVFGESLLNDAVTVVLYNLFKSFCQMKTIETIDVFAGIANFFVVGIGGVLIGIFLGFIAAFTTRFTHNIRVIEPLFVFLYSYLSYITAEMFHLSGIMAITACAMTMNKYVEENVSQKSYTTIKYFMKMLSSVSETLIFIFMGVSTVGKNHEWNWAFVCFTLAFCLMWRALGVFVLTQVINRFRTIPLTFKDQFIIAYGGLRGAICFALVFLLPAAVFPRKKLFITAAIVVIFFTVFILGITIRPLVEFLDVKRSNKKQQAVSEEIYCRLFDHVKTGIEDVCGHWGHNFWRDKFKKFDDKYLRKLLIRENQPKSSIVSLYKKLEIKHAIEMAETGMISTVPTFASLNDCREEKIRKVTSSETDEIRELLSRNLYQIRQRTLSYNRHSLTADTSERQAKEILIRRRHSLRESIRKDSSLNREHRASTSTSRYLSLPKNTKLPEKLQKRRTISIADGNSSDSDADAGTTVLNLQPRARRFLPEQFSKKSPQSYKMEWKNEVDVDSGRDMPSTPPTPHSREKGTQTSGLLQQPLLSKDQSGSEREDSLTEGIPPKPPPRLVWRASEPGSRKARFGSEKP
As to the kind of experiment: FLIPR assay of Na+/H+ exchange (BCECF fluorescence recovery) in human NHE2-LF transfected PS120 cells. To be noted: read-out: IC50 Values Determined By FLIPR, NHE2-LF. In kind it is cell-based. On the procedure: (§1) Human NHE2-LF and human NHE2-SF transfected PS120 cells were grown to confluence in collagen coated Fluorescent Laser Imaging Plate Reader (FLIPR) plates. To remove growth medium, the cells were washed with a 10 mM Hepes buffer, pH 7.4. A pH sensitive fluorescent dye, BCECF, AM (5 μM) (Molecular Probes, Eugene, Oreg.), was added to each well and the plates were incubated in a 37° C. humidified 5% CO2 incubator for approximately 20 minutes.
(§2) The cells were then washed with 30 mM NH4Cl buffer, pH 7.5, to remove excess dye. Plates were incubated with this buffer for approximately 45 minutes in a 37° C. humidified incubator.
5-(N,N-Hexamethylene)-amiloride ((hexa)-amiloride), amiloride, or a vehicle, was then added to each well and allowed to incubate for a minimum of 5 minutes prior to the initiation of intracellular acidification. The NH4Cl buffer was removed and the plates were placed on the FLIPR to establish a baseline fluorescence. […] (This process initiates intracellular acidification and the quenching of BCECF-related fluorescence. The resultant activation of the Na^+/H^+ exchanger and the decrease in intracellular H^+ ions produces in gradual increase in dye fluorescence towards baseline.) Changes in fluorescence were measured by the FLIPR over a period of 7 min. […]

A further assay has as its target T2, human NHE2-SF (Homo sapiens, UniProt Q9UBY0).
T2 construct: NotI/BgIII fragments including each of the entire coding regions were subcloned into pcDNA3.1(−) vectors; expressed in transfected cells; two lines tested
T2 sequence (Q9UBY0 116-812): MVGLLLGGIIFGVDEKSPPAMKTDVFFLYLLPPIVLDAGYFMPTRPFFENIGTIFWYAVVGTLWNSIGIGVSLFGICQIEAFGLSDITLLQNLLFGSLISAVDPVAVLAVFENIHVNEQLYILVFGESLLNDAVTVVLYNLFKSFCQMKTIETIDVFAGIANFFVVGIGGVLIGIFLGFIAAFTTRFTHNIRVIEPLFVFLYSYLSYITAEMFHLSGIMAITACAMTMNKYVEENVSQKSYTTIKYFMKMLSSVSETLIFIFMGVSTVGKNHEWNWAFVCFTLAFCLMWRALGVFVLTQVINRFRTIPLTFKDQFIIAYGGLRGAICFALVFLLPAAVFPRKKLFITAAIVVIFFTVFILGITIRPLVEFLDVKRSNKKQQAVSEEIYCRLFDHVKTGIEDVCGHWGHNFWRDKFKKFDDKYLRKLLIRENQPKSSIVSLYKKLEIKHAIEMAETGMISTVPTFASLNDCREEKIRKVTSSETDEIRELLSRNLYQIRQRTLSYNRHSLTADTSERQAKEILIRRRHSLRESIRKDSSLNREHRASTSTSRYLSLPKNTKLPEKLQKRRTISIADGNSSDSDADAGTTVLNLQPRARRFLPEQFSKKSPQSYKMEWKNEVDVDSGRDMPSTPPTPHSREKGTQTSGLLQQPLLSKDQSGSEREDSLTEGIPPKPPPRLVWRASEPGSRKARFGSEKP
As to the kind of experiment: FLIPR assay of Na+/H+ exchange (BCECF fluorescence recovery) in human NHE2-SF transfected PS120 cells. Type of assay: cell-based. Here is the method: as §1, §2
5-(N,N-Hexamethylene)-amiloride ((hexa)-amiloride), amiloride, or a vehicle, was then added to each well and allowed to incubate for a minimum of 5 minutes prior to the initiation of intracellular acidification. The NH4Cl buffer was removed and the plates were placed on the FLIPR to establish a baseline fluorescence. A 10 mM hepes buffer, pH 7.4, containing the appropriate concentration of test compound or vehicle was added to each well of the plate. (This process initiates intracellular acidification and the quenching of BCECF-related fluorescence. The resultant activation of the Na^+/H^+ exchanger and the decrease in intracellular H^+ ions produces in gradual increase in dye fluorescence towards baseline.) Changes in fluorescence were measured by the FLIPR over a period of 7 min. Activity of the exchanger was calculated based on the percentage of fluorescence recovery as compared to control in the presence of varying concentrations of compounds (Table 2).

Setting [1] is: line #2, read-out: IC50 Values Determined By FLIPR, NHE2-SF line #2.
The mark [2] stands for this setting: line #, read-out: IC50 Values Determined By FLIPR, NHE2-SF line #.

As to `NC(N)=NC(=O)c1nc(Cl)c(N2CCCCCC2)nc1N` [(hexa)-Amiloride, 5-(N,N-Hexamethylene)-amiloride], the concentration for half-maximal inhibition (IC50) on human NHE2-LF came to 7480 nM; on human NHE2-SF (setting [1]), 45 nM; on human NHE2-SF (setting [2]), 23 nM.
Take `N=C(N)NC(=O)c1nc(Cl)c(N)nc1N` [Amiloride, amiloride]: the results for the half-maximal inhibitory concentration (IC50) on human NHE2-LF, at human NHE2-SF (setting [1]) and on human NHE2-SF (setting [2]) were 27000 nM, 1370 nM and 1700 nM, respectively.

As usually defined, the IC50 is the midpoint of a concentration-inhibition curve.
